# Values quoted from earlier work, collected in patent publication US9020605B2, “Electroporation device” (OncoSec Medical Incorporated, priority 2012, dated 2015).
# Settings: P being the partition coefficient between octanol and water
substance,measurement,value
bleomycin,log P,very negative
